The results in this text go back to PubChem BioAssay (NCI).

The structures appear in SMILES notation.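 Grown in 96-well plates, cells were treated for 48 hours with each compound at five concentrations. Insufficient inhibition: endpoint recorded as highest concentration tested. GI50 marks 50% less growth. TGI denotes the concentration required for complete inhibition of growth.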 Where only a bound is given, the exact number is not on record here.

Some test systems named below: BT-549 breast; HCT-116 colon; MDA-MB-231 breast; UACC-62 melanoma; UACC-257 melanoma; HS 578T breast; SNB-19 CNS; HL-60(TB) leukemia; SK-MEL-28 melanoma; CCRF-CEM leukemia.
Assay in all cases: NCI anticancer screen, dose series, 48 h

Turning to `C[C@@]12CCC[C@@](C)(C(=O)O)C1CC[C@]13CC(=O)[C@](CO)(C1)[C@@H](O)CC32` (some centres undefined), the GI50 in the test with BT-549 breast, in the test on HCT-116 colon, in the test on MDA-MB-231 breast, with UACC-62 melanoma, with UACC-257 melanoma and in the test with HS 578T breast was more than 100 µM in each case. The GI50 in the test with SNB-19 CNS, in the test on HL-60(TB) leukemia and in the test with SK-MEL-28 melanoma was more than 100 µM each time. Further, the TGI in the test with BT-549 breast, in the test on HCT-116 colon, in the test on MDA-MB-231 breast, with UACC-62 melanoma, with UACC-257 melanoma and in the test on HS 578T breast was more than 100 µM throughout. The TGI in the test with SNB-19 CNS, with HL-60(TB) leukemia and with SK-MEL-28 melanoma was more than 100 µM throughout.

Turning to `COc1ccc(C2=C(c3ccc(OC)cc3)C(=O)N3CCCC3C2)cc1` (centres undefined), the GI50 in the test on BT-549 breast was 17.1 µM; with HCT-116 colon, 2.96 µM; in the test on MDA-MB-231 breast, 25.4 µM; in the test on UACC-62 melanoma it was 9.09 µM; in the test with UACC-257 melanoma, 32.9 µM; in the test on CCRF-CEM leukemia it was 5.49 µM. The GI50 with HS 578T breast was 69.5 µM; with SNB-19 CNS, 45.6 µM; with HL-60(TB) leukemia, 4.36 µM; with SK-MEL-28 melanoma, 54.6 µM. Besides, the TGI with BT-549 breast was more than 89.8 µM; with HCT-116 colon it was 32.8 µM; with MDA-MB-231 breast, more than 73.9 µM; in the test on UACC-62 melanoma it was more than 100 µM; with UACC-257 melanoma, more than 100 µM; with CCRF-CEM leukemia it was more than 48.2 µM. Besides, the TGI in the test on HS 578T breast is more than 100 µM; with SNB-19 CNS, more than 100 µM; in the test with HL-60(TB) leukemia, 28.4 µM; with SK-MEL-28 melanoma, more than 100 µM.

Turning to `Cn1cc(-c2csc(-c3c[nH]c4ccc(Br)cc34)n2)c2cnccc21`, the GI50 in the test on BT-549 breast was 26.3 µM; with HCT-116 colon, 1.56 µM; in the test with MDA-MB-231 breast, 2.34 µM; with CCRF-CEM leukemia, 0.422 µM; in the test with HS 578T breast, 2.47 µM; with SNB-19 CNS, 3.67 µM. The figures for the GI50 in the test with HL-60(TB) leukemia and in the test with SK-MEL-28 melanoma were 2.11 µM and 1.7 µM, respectively. The TGI in the test with BT-549 breast is more than 100 µM; in the test with HCT-116 colon, 3.11 µM; in the test with MDA-MB-231 breast, 5.55 µM; in the test with CCRF-CEM leukemia it was 1.86 µM; in the test on HS 578T breast, 5 µM; in the test on SNB-19 CNS, more than 100 µM. For the same molecule, the TGI was determined as 7.91 µM in the test on HL-60(TB) leukemia and 3.31 µM in the test with SK-MEL-28 melanoma.

As to `Cc1cc2cc3c(=O)[nH]c(=O)[nH]c3nc2cc1C`, the TGI in the test on BT-549 breast, with HCT-116 colon, with MDA-MB-231 breast, with UACC-62 melanoma, in the test with UACC-257 melanoma and in the test on HS 578T breast was more than 100 µM in each case. The TGI in the test on SNB-19 CNS, in the test on HL-60(TB) leukemia and in the test with SK-MEL-28 melanoma was more than 100 µM throughout.

With `Cc1nc2cc(Nc3nc(Nc4ccc(F)cc4)nc(-c4cccs4)n3)ccc2n1Cc1ccccc1`, the GI50 is 15.8 µM with BT-549 breast; 3.35 µM with HCT-116 colon; 3.48 µM with MDA-MB-231 breast; 5.42 µM in the test with UACC-257 melanoma; 2.46 µM in the test with CCRF-CEM leukemia; 3.81 µM in the test with HS 578T breast. Moreover, the GI50 with SNB-19 CNS is 5.29 µM; with HL-60(TB) leukemia, 2.46 µM; in the test with SK-MEL-28 melanoma, 9.47 µM. Moreover, the TGI in the test with BT-549 breast was 40.7 µM; with HCT-116 colon, 13.3 µM; with MDA-MB-231 breast, 16.2 µM; in the test on UACC-257 melanoma, 30.1 µM; in the test on CCRF-CEM leukemia, 7.21 µM; with HS 578T breast, more than 100 µM. The TGI in the test on SNB-19 CNS is more than 100 µM; in the test on HL-60(TB) leukemia, 6.5 µM; in the test with SK-MEL-28 melanoma, more than 100 µM.

Take `O=C(/C=C/C=C/c1ccccc1)c1ccccc1`: the TGI in the test on BT-549 breast was determined as 43.5 µM; in the test on HCT-116 colon, 31.4 µM; with MDA-MB-231 breast, 37.8 µM; in the test on UACC-62 melanoma it was 33 µM; in the test with UACC-257 melanoma it was 34.2 µM; in the test on HS 578T breast it was 55.4 µM. Besides, the TGI was determined as 44.4 µM in the test with SNB-19 CNS, 28.6 µM with HL-60(TB) leukemia and 31.3 µM in the test with SK-MEL-28 melanoma.

On to `O=[N+]([O-])c1cccc2ccc(N/N=C/c3ccccc3O)nc12`, for which the GI50 in the test on BT-549 breast was more than 100 µM; in the test on HCT-116 colon, 2.19 µM; with MDA-MB-231 breast, more than 100 µM; in the test with UACC-62 melanoma, more than 100 µM; in the test with UACC-257 melanoma, more than 100 µM; in the test with HS 578T breast, 72.4 µM. The GI50 in the test with SNB-19 CNS was more than 100 µM; with HL-60(TB) leukemia, 1.74 µM; with SK-MEL-28 melanoma, more than 100 µM. The TGI in the test on BT-549 breast, in the test on HCT-116 colon, with MDA-MB-231 breast, in the test on UACC-62 melanoma, with UACC-257 melanoma and in the test on HS 578T breast was more than 100 µM each time. Besides, the TGI in the test on SNB-19 CNS, with HL-60(TB) leukemia and with SK-MEL-28 melanoma was more than 100 µM in each case.

Take `O=C1c2cc3c(cc2-c2c1c1cc(Cl)c(Cl)cc1c(=O)n2C[C@H](O)CO)OCO3`: the GI50 in the test with BT-549 breast was less than 0.01 µM; with MDA-MB-231 breast, 0.0796 µM; with UACC-62 melanoma it was less than 0.01 µM; with UACC-257 melanoma it was 0.0123 µM; in the test with CCRF-CEM leukemia it was less than 0.01 µM; with HS 578T breast it was 0.291 µM. Besides, the GI50 was less than 0.01 µM in the test with SNB-19 CNS, less than 0.01 µM in the test with HL-60(TB) leukemia and 0.0429 µM with SK-MEL-28 melanoma. The TGI is 0.455 µM in the test on BT-549 breast; 1.66 µM with MDA-MB-231 breast; 0.0126 µM with UACC-62 melanoma; 0.217 µM in the test with UACC-257 melanoma; 19.1 µM in the test on CCRF-CEM leukemia; 32.9 µM in the test with HS 578T breast. Besides, the TGI in the test on SNB-19 CNS turned out to be 2.79 µM; in the test with HL-60(TB) leukemia it was 10.5 µM; in the test on SK-MEL-28 melanoma, 8.62 µM.

`O=C1CCC/C=C\C[C@H]2C=CC(=O)/C2=C/C[C@H](C/C=C\CC(F)(F)F)O1`: the GI50 is 0.292 µM in the test with BT-549 breast; 0.311 µM in the test on HCT-116 colon; 0.722 µM with MDA-MB-231 breast; 0.28 µM with UACC-62 melanoma; 0.465 µM in the test on CCRF-CEM leukemia; 1.17 µM in the test on HS 578T breast. Moreover, the GI50 in the test on SNB-19 CNS is 0.867 µM; in the test on HL-60(TB) leukemia it was 0.495 µM; in the test on SK-MEL-28 melanoma it was 0.571 µM. The TGI in the test on BT-549 breast is 0.659 µM; in the test with HCT-116 colon, 0.614 µM; in the test with MDA-MB-231 breast, 5.63 µM; in the test on UACC-62 melanoma, 0.765 µM; in the test on CCRF-CEM leukemia, 1.71 µM; in the test with HS 578T breast, 9.68 µM. In addition, the figures for the TGI with SNB-19 CNS, in the test with HL-60(TB) leukemia and with SK-MEL-28 melanoma were 3.71 µM, 2.58 µM and 2.25 µM, respectively.
